From US11285156B2, “Substituted piperazines as KRAS G12C inhibitors” (Amgen Inc., priority 2018, dated 2022) come the findings set out here.

In general, IC50 refers to the midpoint of a concentration-inhibition curve.

One test deals with GDP-bound KRAS protein (aa 1-169), containing both G12C and C118A amino acid substitutions (Homo sapiens (Human), UniProt P01116, C118A/G12C). Put plainly: Coupled nucleotide exchange assay (SOS-mediated nucleotide exchange, AlphaScreen). In kind it is biochemical. The note with it: 5 min compound pre-incubation.
GDP-bound KRAS protein (aa 1-169), containing both G12C and C118A amino acid substitutions, sequence (P01116 other isoform, or with tags, fused parts or gaps G12C/C118A): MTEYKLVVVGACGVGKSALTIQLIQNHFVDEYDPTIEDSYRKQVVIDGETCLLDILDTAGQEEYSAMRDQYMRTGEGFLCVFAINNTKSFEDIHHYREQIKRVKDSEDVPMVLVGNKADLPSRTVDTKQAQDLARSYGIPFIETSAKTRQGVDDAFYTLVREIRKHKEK
With `C=CC(=O)N1C[C@H](C)N(c2nc(=O)n(-c3c(C)nc(Br)nc3C(C)C)c3nc(-c4ccccc4F)c(Cl)cc23)C[C@H]1C` (single isomer, unassigned) [Example 197-1], the “Coupled exchange IC50 (5 min; μM)” value was determined as 1.59 µM.

`C=CC(=O)N1C[C@H](C)N(c2nc(=O)n(-c3c(C)cc(C4CC4)nc3C(C)C)c3nc(-c4ccccc4F)c(Cl)cc23)C[C@H]1C` (single isomer, unassigned) [Example 164-2]: the “Coupled exchange IC50 (5 min; μM)” value turned out to be 3.44 µM.

Turning to `C=CC(=O)N1C[C@H](C)N(c2nc(=O)n(-c3c(C)ccnc3C(C)C)c3nc(C45CCCCC4C5)c(Cl)cc23)C[C@H]1C` (atropisomer, axis not shown; (M)) [Example 207, (M)-6-Chloro-4-[(2S,5R)-2,5-dimethyl-4-prop-2-enoyl-piperazin-1-yl]-1-(2-isopropyl-4-methyl-3-pyridyl)-7-[norcaran-1-yl]pyrido[2,3-d]pyrimidin-2-one], the “Coupled exchange IC50 (5 min; μM)” value came out at 0.932 µM.

Regarding `C=CC(=O)N1C[C@H](C)N(c2nc(=O)n(-c3c(C)cc(C4CC4)nc3C(C)C)c3nc(-c4ccccc4F)c(Cl)cc23)C[C@H]1C` (single isomer, unassigned) [Example 164-1], the “Coupled exchange IC50 (5 min; μM)” value came to 0.066 µM.

The same test, now with this note: read-out: Coupled exchange IC50 (5 min; μM); 5 min compound pre-incubation.
With `C=CC(=O)N1C[C@H](C)N(c2nc(=O)n(-c3c(C)ccnc3C(C)C)c3nc(C4CCCC4)c(Cl)cc23)C[C@H]1C` (atropisomer, axis not shown; (M)) [Example 95-3, (M)-6-chloro-7-cyclopentyl-4-[(2S,5R)-2,5-dimethyl-4-prop-2-enoyl-piperazin-1-yl]-1-(2-isopropyl-4-methyl-3-pyridyl)pyrido [2,3-d]pyrimidin-2-one], the IC50 was 0.631 µM.

Regarding `C=CC(=O)N1C[C@H](C)N(c2nc(=O)n3c4nc(c(Cl)cc24)-c2ccccc2C/C=C/Cc2cccc(C(C)C)c2-3)C[C@H]1C` (single isomer, unassigned) [Example 146-1-1], the IC50 came out at 9.43 µM.

For `C=CC(=O)N1C[C@H](C)N(c2nc(=O)n(-c3c(CN(C)C)ncnc3C(C)C)c3nc(-c4ccccc4F)c(Cl)cc23)C[C@H]1C` (single isomer, unassigned) [Example 80-18-1], the IC50 turned out to be 1.39 µM.

For the compound `C=CC(=O)N1CCN(c2nc(=O)n(-c3c(C)ccnc3C(C)C)c3nc(Cl)c(Cl)cc23)CC1CC#N` (atropisomer, axis not shown; (M)) [Example 144-2-1, (M)-2-[4-[6,7-Dichloro-1-(2-isopropyl-4-methyl-3-pyridyl)-2-oxo-pyrido[2,3-d]pyrimidin-4-yl]-1-prop-2-enoyl-piperazin-2-yl]acetonitrile], the IC50 was 63.7 µM.

Consider `C=CC(=O)N1C[C@H](C)N(c2nc(=O)n(-c3c(C)ccnc3C(C)C)c3nc(-c4cccc5cn[nH]c45)c(Cl)cc23)C[C@H]1C` (atropisomer, axis not shown; (M)) [Example 92-30, (M)-6-Chloro-4-[(2S,5R)-2,5-dimethyl-4-prop-2-enoyl-piperazin-1-yl]-7-(1H-indazol-7-yl)-1-(2-isopropyl-4-methyl-3-pyridyl)pyrido [2,3-d]pyrimidin-2-one], for which the IC50 was 0.479 µM.

Consider `C=CC(=O)N1C[C@H](C)N(c2nc(=O)n3c4nc(c(Cl)cc24)-c2ccccc2C/C=C/Cc2ccccc2-3)C[C@H]1C` (single isomer, unassigned) [Example 146-3-1], for which the half-maximal inhibitory concentration (IC50) came out at 204 µM.

As to `C=CC(=O)N1C[C@H](C)N(c2nc(=O)n(-c3c(C)ccnc3C(C)C)c3nc(-c4ccccc4F)c(C)nc23)C[C@H]1C` (single isomer, unassigned) [Example 225], the IC50 amounted to 4.43 µM.

For the compound `C=CC(=O)N1C[C@H](C)N(c2nc(=O)n(-c3c(C)ccnc3C(C)C)c3nc(-c4cc(O)cc5ccccc45)c(F)cc23)C[C@H]1C` (atropisomer, axis not shown; (M)) [Example 132-2, (M)-4-[(2S,5R)-2,5-dimethyl-4-prop-2-enoyl-piperazin-1-yl]-6-fluoro-7-(3-hydroxy-1-naphthyl)-1-(2-isopropyl-4-methyl-3-pyridyl)pyrido[2,3-d]pyrimidin-2-one], the IC50 was determined as 0.57 µM.

Take `C=CC(=O)N1C[C@H](C)N(c2nc(=O)n(-c3c(C)ccnc3C(C)C)c3nc(-c4cc(OC)cc5ccccc45)c(Cl)cc23)C[C@H]1C` (atropisomer, axis not shown; (M)) [Example 92-70, (M)-6-Chloro-4-[(2S,5R)-2,5-dimethyl-4-prop-2-enoyl-piperazin-1-yl]-1-(2-isopropyl-4-methyl-3-pyridyl)-7-(3-methoxy-1-naphthyl)pyrido [2,3-d]pyrimidin-2-one]: the IC50 amounted to 0.6 µM.

Turning to `C=CC(=O)N1C[C@H](C)N(c2nc(=O)n(-c3c(C)ccnc3C(C)C)c3nc(-c4c(F)cccc4F)c(F)cc23)C[C@H]1C` (atropisomer, axis not shown; (M)) [Example 94-11, (M)-7-(2,6-Difluorophenyl)-4-[(2S,5R)-2,5-dimethyl-4-prop-2-enoyl-piperazin-1-yl]-6-fluoro-1-(2-isopropyl-4-methyl-3-pyridyl)pyrido [2,3-d]pyrimidin-2-one], the IC50 amounted to 0.844 µM.

Regarding `C=CC(=O)N1C[C@H](C)N(c2nc(=O)n(-c3c(N(C)C)ccnc3C(C)C)c3nc(-c4ccccc4S(C)(=O)=O)c(Cl)cc23)C[C@H]1C` [Example 55-53, 6-Chloro-1-[4-(dimethylamino)-2-isopropyl-3-pyridyl]-4-[(2S,5R)-2,5-dimethyl-4-prop-2-enoyl-piperazin-1-yl]-7-(2-methylsulfonylphenyl)pyrido[2,3-d]pyrimidin-2-one], the IC50 was determined as 0.356 µM.

In the case of `C=CC(=O)N1C[C@H](C)N(c2nc(=O)n(-c3c(CN(CC)C(C)C)ccnc3C(C)C)c3nc(-c4ccccc4C(C)C)c(Cl)cc23)C[C@H]1C` [Example 141-2, 6-Chloro-4-[(2S,5R)-2,5-dimethyl-4-prop-2-enoyl-piperazin-1-yl]-1-[4-[[ethyl(isopropyl)amino]methyl]-2-isopropyl-3-pyridyl]-7-(2-isopropylphenyl)pyrido[2,3-d]pyrimidin-2-one], the IC50 is 0.279 µM.

Consider `C=CC(=O)N1C[C@H](C)N(c2nc(=O)n(-c3c(C)ccnc3C(C)C)c3[nH]c(=O)c(Cl)cc23)C[C@H]1C` (atropisomer, axis not shown; (M)) [Example 92-22, (M)-6-Chloro-4-[(2S,5R)-2,5-dimethyl-4-prop-2-enoyl-piperazin-1-yl]-1-(2-isopropyl-4-methyl-3-pyridyl)-8H-pyrido[2,3-d]pyrimidine-2,7-dione], for which the IC50 was determined as 2.94 µM.

For `C=CC(=O)N1C[C@H](C)N(c2nc(=O)n(-c3c(C)ccnc3C(C)C)c3nc(-c4ccccc4N(C)C(C)=O)c(Cl)cc23)C[C@H]1C` (atropisomer, axis not shown; (M)) [Example 129-3, (M)-N-[2-[6-Chloro-4-[(2S,5R)-2,5-dimethyl-4-prop-2-enoyl-piperazin-1-yl]-1-(2-isopropyl-4-methyl-3-pyridyl)-2-oxo-pyrido[2,3-d]pyrimidin-7-yl]phenyl]-N-methyl-acetamide], the IC50 came to 0.352 µM.

Turning to `C=CC(=O)N1C[C@H](C)N(c2nc(=O)n(-c3c(C)ccnc3C(C)C)c3nc(-c4ccccc4F)c(C)nc23)C[C@H]1C` (single isomer, unassigned) [Example 225-2], the IC50 stood at 0.501 µM.

`C=CC(=O)N1[C@@H]2CC[C@H]1CN(c1nc(=O)n(-c3c(C)ccnc3C(C)C)c3nc(-c4ccccc4F)c(Cl)cc13)C2` (atropisomer, axis not shown; (M)) [Example 79-10, (M)-6-Chloro-7-(2-fluorophenyl)-1-(2-isopropyl-4-methyl-3-pyridyl)-4-[(1S,5R)-8-prop-2-enoyl-3,8-diazabicyclo[3.2.1]octan-3-yl]pyrido[2,3-d]pyrimidin-2-one]: the half-maximal inhibitory concentration (IC50) was determined as 2.78 µM.

Consider `C=CC(=O)N1[C@H](C)CN(c2nc(=O)n(-c3c(C)cc(N)nc3C(C)C)c3nc(-c4ccccc4F)c(F)cc23)C[C@@H]1C` (single isomer, unassigned) [Example 123-3], for which the IC50 came out at 14 µM.

As for `Cc1ccnc(C(C)C)c1-n1c(=O)nc(N2C[C@@H](C)N(C(=O)C#CCN(C)C)C[C@@H]2C)c2cc(F)c(-c3ccccc3F)nc21` [Example 119-2, 4-((2S,5R)-4-(4-(Dimethylamino)but-2-ynoyl)-2,5-dimethylpiperazin-1-yl)-6-fluoro-7-(2-fluorophenyl)-1-(2-isopropyl-4-methylpyridin-3-yl)pyrido[2,3-d]pyrimidin-2(1H)-one], the IC50 came out at 0.33 µM.

`C=CC(=O)N1C[C@H](C)N(c2nc(=O)n(-c3c(C)ccnc3C(C)C)c3nc(-c4cccc5c4NC(=O)C5)c(Cl)cc23)C[C@H]1C` (atropisomer, axis not shown; (M)) [Example 92-20, (M)-6-Chloro-4-[(2S,5R)-2,5-dimethyl-4-prop-2-enoyl-piperazin-1-yl]-1-(2-isopropyl-4-methyl-3-pyridyl)-7-(2-oxoindolin-7-yl)pyrido[2,3-d]pyrimidin-2-one]: the IC50 turned out to be 0.403 µM.

Consider `C=CC(=O)N1C[C@H](C)N(c2nc(=O)n(-c3c(C)ccnc3C(C)C)c3nc(-c4scnc4C)c(Cl)cc23)C[C@H]1C` (atropisomer, axis not shown; (M)) [Example 92-72, (M)-6-Chloro-4-[(2S,5R)-2,5-dimethyl-4-prop-2-enoyl-piperazin-1-yl]-1-(2-isopropyl-4-methyl-3-pyridyl)-7-(4-methylthiazol-5-yl)pyrido[2,3-d]pyrimidin-2-one], for which the IC50 was 8.87 µM.

Turning to `C=CC(=O)N1C[C@H](C)N(c2nc(=O)n(-c3c(C)ccnc3C(C)C)c3nc(CCC)c(Cl)cc23)C[C@H]1C` (atropisomer, axis not shown; (M)) [Example 95-6, (M)-6-chloro-4-[(2S,5R)-2,5-dimethyl-4-prop-2-enoyl-piperazin-1-yl]-1-(2-isopropyl-4-methyl-3-pyridyl)-7-propyl-pyrido[2,3-d]pyrimidin-2-one], the IC50 came to 0.823 µM.

For `C=CC(=O)N1C[C@@H](C)N(c2nc(=O)n(-c3c(C)ccnc3C(C)C)c3nc(-c4ccccc4F)c(Cl)nc23)[C@@H](C)C1` [Example 106-7, 6-Chloro-4-[(2R,6S)-2,6-dimethyl-4-prop-2-enoyl-piperazin-1-yl]-7-(2-fluorophenyl)-1-(2-isopropyl-4-methyl-3-pyridyl)pteridin-2-one], the IC50 turned out to be 0.301 µM.
